Columns and labels:
PtTPS17 = target: T1, PtTPS17 (Populus trichocarpa, UniProt A0A0S1TFB5); experiment: GC-MS product analysis; type: biochemical; conditions: 50 µM GGPP, 5 mM MgCl2, pH 7.5, 25 °C, 2 h; product ent-CPP detected as copalol
T1 construct: N-terminally truncated (delta 65 aa, transit peptide removed), pET200 (N-terminal His tag), E. coli BL21(DE3), partially purified
T1 sequence (A0A0S1TFB5 66-795): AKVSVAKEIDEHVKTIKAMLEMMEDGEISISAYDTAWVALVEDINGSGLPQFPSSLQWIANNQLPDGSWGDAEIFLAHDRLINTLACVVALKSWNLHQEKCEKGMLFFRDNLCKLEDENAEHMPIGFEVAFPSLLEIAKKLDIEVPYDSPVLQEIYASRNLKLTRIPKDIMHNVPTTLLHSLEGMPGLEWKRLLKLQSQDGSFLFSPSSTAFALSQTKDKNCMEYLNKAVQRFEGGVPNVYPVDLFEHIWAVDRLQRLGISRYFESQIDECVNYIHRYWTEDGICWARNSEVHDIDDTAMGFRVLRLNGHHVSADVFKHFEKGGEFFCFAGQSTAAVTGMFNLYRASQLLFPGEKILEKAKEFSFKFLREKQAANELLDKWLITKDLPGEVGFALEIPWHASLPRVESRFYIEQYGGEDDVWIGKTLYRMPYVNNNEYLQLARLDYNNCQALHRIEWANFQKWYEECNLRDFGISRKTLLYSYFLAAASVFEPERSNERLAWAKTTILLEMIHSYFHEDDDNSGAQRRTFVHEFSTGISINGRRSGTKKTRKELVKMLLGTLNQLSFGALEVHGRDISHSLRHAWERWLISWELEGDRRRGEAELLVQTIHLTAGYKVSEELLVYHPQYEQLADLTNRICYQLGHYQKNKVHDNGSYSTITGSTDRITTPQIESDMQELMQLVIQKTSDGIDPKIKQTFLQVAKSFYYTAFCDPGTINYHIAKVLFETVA

PtTPS19 = target: T2, PtTPS19 (Populus trichocarpa, UniProt A0A0S1TJ32); experiment: GC-MS product analysis, ent-CPP made in situ; type: biochemical; conditions: ent-CPP from GGPP by coupled PtTPS17; 5 mM MgCl2, pH 7.5, 25 °C, 2 h
T2 construct: N-terminally truncated (delta 42 aa, transit peptide removed), pET200 (N-terminal His tag), E. coli BL21(DE3), partially purified
T2 sequence (A0A0S1TJ32 entry or part of it): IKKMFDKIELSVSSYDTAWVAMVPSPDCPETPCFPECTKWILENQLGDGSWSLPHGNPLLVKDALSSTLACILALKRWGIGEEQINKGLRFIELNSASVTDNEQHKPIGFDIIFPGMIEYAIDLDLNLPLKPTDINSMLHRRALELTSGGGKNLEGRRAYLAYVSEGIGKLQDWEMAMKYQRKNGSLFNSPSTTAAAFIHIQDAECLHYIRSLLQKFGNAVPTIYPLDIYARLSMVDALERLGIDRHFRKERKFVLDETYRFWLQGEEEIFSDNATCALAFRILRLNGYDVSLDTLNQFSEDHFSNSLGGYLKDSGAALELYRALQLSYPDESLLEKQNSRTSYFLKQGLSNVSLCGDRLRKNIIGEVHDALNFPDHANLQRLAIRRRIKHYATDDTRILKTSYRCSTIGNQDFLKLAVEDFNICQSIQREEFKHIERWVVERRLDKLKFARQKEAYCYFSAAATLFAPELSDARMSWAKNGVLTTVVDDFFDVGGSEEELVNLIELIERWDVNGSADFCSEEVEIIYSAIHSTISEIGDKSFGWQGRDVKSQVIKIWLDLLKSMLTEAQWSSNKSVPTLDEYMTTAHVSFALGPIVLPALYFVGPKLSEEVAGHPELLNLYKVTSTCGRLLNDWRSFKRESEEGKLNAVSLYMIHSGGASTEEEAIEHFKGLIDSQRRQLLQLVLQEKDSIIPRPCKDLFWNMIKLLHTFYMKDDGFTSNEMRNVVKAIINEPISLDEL

Structure (SMILES) | GC-MS product analysis (PtTPS17) | GC-MS product analysis, ent-CPP made in situ (PtTPS19)
CC(C)=CCC/C(C)=C/CC/C(C)=C/CC/C(C)=C/COP(=O)(O)OP(=O)(O)O [(E,E,E)-GGPP] | When PtTPS17 was incubated with GGPP, copalol was detected | –
C=C1CC[C@@H]2C(C)(C)CCC[C@@]2(C)[C@@H]1CC/C(C)=C/COP(=O)(O)OP(=O)(O)O [ent-CPP] | – | PtTPS19 converted ent-CPP into ent-kaurene
